Key:
Type in all cases: cell-based
Jurkat/Bcl-xL cells = assay: Cell death in Bcl-xL overexpressing Jurkat cells (MTS, PI, sub-G1, FAM-VAD-fmk); settings: for sub-G1 DNA: 100 μM BH3I-1 or 30 μM BH3I-2; for dose at which Bcl-xL overexpression gave no protection / doses from which Bcl-xL overexpression provided protection: 48 hr, MTS or PI
Experimental: If BH3Is act through inhibiting the function of anti-apoptotic members of Bcl-2 family, overexpression of Bcl-xL should provide protection against BH3Is, which can be overcome by increased amount of BH3Is. Furthermore, Bcl-xL overexpressing cells. should still undergo apoptosis when treated with a high enough dose of a BH3I to overcome the protection by Bcl-xL. To test this theory, Jurkat/Bcl-xL cells were treated with BH3I-1 and BH3I-2 for 48 hr. Cell death was determined using the MTS assay (FIG. 9A) or PI staining (FIG. 9B). Overexpression of Bcl-xL provided protection for Jurkat cells from lower doses of BH3Is (up to 40 μM of BH3I-2 and up to 100 μM of BH3I-1). Overexpression of Bcl-xL, however, gave no protection after treatment with 80 μM of BH3I-2 or 200 μM of BH3I-1. […] Caspases were activated in Hoechst-positive dying cells following treatment with high doses of BH3Is.

[1] = tested on: HeLa cells that stably overexpress human BCL-XL; assay: Cell death by ATP levels in Bcl-xL overexpressing cells after zVAD-fmk pretreatment; settings: zVAD-fmk 100 μM pretreatment, 48 or 72 hours
Experimental: In another study, HeLa cells that stably overexpress human BCL-XL, and are therefore more resistant to cell death, were pretreated with zVAD-fmk (100 μM) for 1 hour, as described above. Each of the chemical compounds BH3I-1, BH3I-1′, and BH3I-2 from the ChemBridge library was then added to the media of the cells of three separate samples. After 48 or 72 hours of exposure of the cells to zVAD-fmk and the chemical compound, the level of cell death was measured for each sample, by measuring cellular ATP levels.

Jurkat cells [2] = assay: Caspase activation with fluorogenic substrates; settings: for caspase-3-like activity (DEVD.amc) / caspase-9-like activity (LEHD.amc): BH3I-1 100 μM, BH3I-2 50 μM; for time of maximum activation of both caspases: after addition of the BH3I
Experimental: (§1) FIG. 6F is a graph showing the time course of caspase activation in Jurkat cells, as assayed using a QuantiPak kit (Biomol). The cells were treated with 100 μM of BH3I-1 (triangles) or 50 μM of BH3I-2 (squares) for 2, 6, 12, or 24 hr. A fluorescence based assay of caspase-3 (Ac-DEVD-AMC) activity was then performed. The numbers represent relative AMC fluorescence in each sample compared to the value obtained with untreated Jurkat cells incubated for 24 hours, set at 1. Standard deviation values are also shown.
as §1, with “6G” for “6F”, “12” for “12,”, “caspase-9 (Ac-LEHD-AMC)” for “caspase-3 (Ac-DEVD-AMC)”
FIG. 6H is a graph showing the comparison of caspase-9 (Ac-LEHD-AMC) (open bars) and caspase-8 (Ac-IETD-AMC) (closed bars) activation 12 and 24 hr after treatment of Jurkat cells with BH3Is.
To evaluate the activation of caspases by BH3Is, the activation of caspases in the presence of these compounds was measured using the preferred caspase-3 and caspase-9 fluorogenic substrates DEVD.amc and LEHD.amc. […] Activation of both caspases followed an essentially identical time course and reached a maximum 12 hours after addition of the BH3I. If BH3Is induce apoptosis through a mitochondrial pathway, caspase-9 should be activated before caspase-8, since the latter is a mediator of the death receptor pathway at the plasma membrane (Cryns et al., Genes Dev. 12:1551-70, 1998 [published erratum appears in Genes Dev. 13:371, 1999]). Therefore, the levels of caspase-9 and caspase-8 activity were compared by measuring LEHD.amc/IETD.amc cleavage activities.

HeLa cells, Jurkat cells = assay: Cytochrome c release and mitochondrial membrane potential; settings: immunostaining and fractionation, 48 hr
Experimental: FIG. 6D is a set of images of cells showing cytochrome c release induced by BH3Is. HeLa cells were treated with 100 μM BH3I-1 for 48 hr and were then stained with Hoechst (a) or cytochrome c antibody (b). The arrows indicate the position of an apoptotic cell.
FIG. 6E is an image of a Western blot analysis of cytochrome c release from Jurkat cells treated with BH3I-1 (100 μM) or BH3I-2 (50 μM) for 48 hr. Cells were fractionated and soluble (S) and heavy membrane (M) fractions were subjected to Western blot analysis using cytochrome c (Pharmingen) and VDAC (Calbiochem) antibodies.
Next, the role of BH3 Is in inducing the release of cytochrome c from mitochondria was examined.

HeLa cells [3] = assay: Cell death by ATP levels after zVAD-fmk pretreatment; settings: zVAD-fmk 100 μM pretreatment, 48 or 72 hours
Experimental: The conditions under which cell death occurs in the presence of BH3Is were further evaluated. HeLa cells were pretreated with zVAD-fmk (100 μM) for 1 hour. The purpose of such a treatment was to inhibit the intracellular pathways mediating cell death by apoptosis. Each of the chemical compounds BH3I-1, BH3I-1′, or BH3I-2 was then added to the media of the cells of three separate samples. After 48 or 72 hours of exposure of the cells to zVAD-fmk and the chemical compound, the level of cell death was measured for each sample, by measuring cellular ATP levels.

HeLa cells [4] = assay: Cell death by cellular ATP levels; settings: 48 hours
Experimental: (§2) HeLa cells, U-937 cells, or Jurkat cells, each of which endogenously express both Bak and Bcl-xL, were contacted with each of the BH3I chemical compounds identified above, by adding the compound to the cell culture media. Forty-eight hours after the cells received the chemical compound the cell culture sample was evaluated for the level of cell death that had occurred in response to the chemical compound. The level of cell death was determined by measuring cellular ATP levels, wherein a decrease in cellular ATP levels indicated an increase in cell death. In each cell line, cell death was increased in the sample that received one of the above-identified compounds.

U-937 cells = assay: Cell death by cellular ATP levels; settings: 48 hours
Experimental: as §2

Jurkat cells [5] = assay: Cell death by cellular ATP levels; settings: 48 hours
Experimental: as §2

Compound | sub-G1 DNA (Jurkat/Bcl-xL cells) | dose at which Bcl-xL overexpression gave no protection (Jurkat/Bcl-xL cells) [µM] | doses from which Bcl-xL overexpression provided protection (Jurkat/Bcl-xL cells) | cellular ATP levels [1] | caspase-3-like activity (DEVD.amc) (Jurkat cells [2]) | caspase-9-like activity (LEHD.amc) (Jurkat cells [2]) | time of maximum activation of both caspases (Jurkat cells [2]) [h] | cytochrome c release (HeLa cells, Jurkat cells) | cellular ATP levels (HeLa cells [3]) | GI50 (HeLa cells [4]) [µM] | GI50 (U-937 cells) [µM] | GI50 (Jurkat cells [5]) [µM]
CC(C)C(C(=O)O)N1C(=O)C(=Cc2ccc(Br)cc2)SC1=S (stereo in doubt) [BH3I-1] | induced the appearance of sub-GI DNA | 200 | up to 100 μM | cellular ATP levels decreased | increase | increase | 12 | induced cytochrome c release | cellular ATP levels decreased |  |  | 
O=C(Nc1cc(S(=O)(=O)c2ccc(Cl)cc2)ccc1Cl)c1cc(Cl)cc(Br)c1O [BH3I-2] | induced the appearance of sub-GI DNA | 80 | up to 40 μM | cellular ATP levels decreased | increase | increase | 12 | induced cytochrome c release | cellular ATP levels decreased | 10 to 15 | 10 to 15 | 10 to 15
